Entries after “also recorded” stand apart in the source; their conditions may differ. Where two headings read alike, the source gives them in different places.
What was measured:
[1] = tested on: Human foreskin fibroblast (HFF) cells; assay: WST-1-based cytotoxicity assay
Procedure: (§1) Human foreskin fibroblast (HFF) cells (purchased from ATCC) were routinely maintained in DMEM supplemented with 10% fetal bovine serum, 100 units/ml penicillin, […] and 1% GlutaMAX™-I (Thermo Fisher Scientific, Waltham, MA). A WST-1-based cytotoxicity assay was performed as previously described. In detail, HFF cells were plated at 1.0×10^4 cells/100 μL medium in each well of a 96-well culture plate, and incubated overnight at 37°C in a 5% CO2 atmosphere to allow cells to adhere to the wells. […] Numbers of viable cells were then assessed using the Premix WST-1 Cell Proliferation Assay System (Takara). […] DMSO was added at 1% as a negative control whereas ionomycin was added at 30 μM as a positive control. As a blank, the above culture medium was used in place of the solutions added.

rEhAPSK = rEhAPSK (Entamoeba histolytica, UniProt C4LUW9); assay: 96-well plate-based in vitro APSK activity assay (coupling assay, NADH decrease); assay type: biochemical; conditions: for Inhibition of rEhAPSK activity: 10 μM compound, 1% DMSO
Procedure: (§2) A coupling assay to measure APSK activity was performed as described except a 96-well plate was used. Briefly, each well contained 100 μL reaction mixture, which consisted of 90 μL coupling solution and 10 μL of either compound solution (see below) or 10% DMSO. […] The coupling solution was 100 mM Tris/HCl (pH 8.0), 1 mM MgCl2, 1 mM KCl, 5 mM Mg2ATP, 1 mM NADH, 1 mM PEP, 1 U NP1, 3.5 U PK, 5.0 U LDH, and APSK (≤3 μL). […] As controls, in place of purified APSK solution (rEhAPSK or rHsAPSK), 3 μL of a blank [50 mM Tris/HCl buffer (pH 8.0)], a solvent (elution buffer), a mock (rEhSF2), or denatured APSK suspensions obtained by heat-treatment, were added to the coupling solution. The activity of each sample was calculated after removing the baseline value of the blank control.
(§3) For the inhibition assay, 2 μL of each stock solution, which were distributed in a 96-well plate, were transferred to a new plate to make a replicate. After adding 18 μL deionized water to each well and mixing, 10 μL of each diluted solution (100 μM compound solution) was again transferred into a new 96-well plate to make a replicate. Then 90 μL of the coupling solution prepared above was dispensed into each well containing the previously added 10 μL of 100 μM compound solution. As a solvent control, 10% DMSO solution (vol/vol-deionized water) was used in place of compound solution. The final concentrations of each compound and DMSO in a well were 10 μM and 1% (vol/vol), respectively. The assays were performed independently three times, and data are shown as the mean with SD.
One millimolar stock solutions used were either thawed in a replicate (96-well plate) prepared in [18] […] Subsequently, 3.4 μL of the 1 mM and each diluted stock solution were dispensed into wells of a 96-well culture plate, containing 30.6 μL deionized water and mixed well by pipetting. Ten microliters of all resulting solutions were then dispensed into wells of a 96-well plate to make triplicates and then used as described for the above inhibition assay. 10% DMSO solution was used as an inhibitor-free control. Note that the final DMSO concentration in any well was 1% (vol/vol).
(§4) In all assays, prepared mixtures in a plate were mixed on a vibrating table equipped with either an EnVision or ARVO plate reader (PerkinElmer) before starting the reaction.

[2] = WST-1-based cytotoxicity assay; conditions: human
Procedure: as §1

[3] = tested on: E. histolytica trophozoite; assay: E. histolytica trophozoite proliferation assay (flow cytometry); assay type: cell-based; conditions: Entamoeba histolytica, read-out: Trophozoite proliferation IC50
Procedure: (§5) E. histolytica trophozoite proliferation and E. invadens cyst formation assays were performed essentially as described in [18] except that in addition to 0–72 and 48–72 h cyst formation assays, 0–96 and 0–120 h, and 48–96 and 48–120 h assays were also performed.

[4] = tested on: E. invadens cyst formation; assay: E. invadens cyst formation (encystation) assay (flow cytometry); assay type: cell-based, Entamoeba invadens; conditions: for IC50: Entamoeba invadens, read-out: Cyst formation IC50; for Number of cysts formed at 72 h: compound added at 48 h post-induction (48–72 h)
Procedure: as §5

[5] = tested on: E. histolytica trophozoite; design: method as in PMID 30087858; conditions: 10 μM; ref [18]; cited from earlier work
[6] = tested on: E. invadens cyst formation; design: method as in PMID 30087858; conditions: 10 μM; ref [18]; cited from earlier work
[7] = tested on: E. histolytica trophozoites; assay: Morphological analysis by phase contrast microscopy; assay type: cell-based, Entamoeba histolytica; conditions: 6 h treatment
Excerpt: Cell morphology was then observed by phase contrast microscopy using a Primovert microscope (Carl Zeiss, Germany) with a COMS camera (E3CMOS12000KPA, ToupTek, China). […] Cell images were captured using ToupView software (ToupTek).

[8] = tested on: sulfolipids synthesized in E. histolytica trophozoites; assay: Metabolic labeling by [35S]-labeled sulfate, sulfolipid synthesis; assay type: cell-based, Entamoeba histolytica; conditions: 6 h treatment; A-D-11, A-H-11 6.25-100 μM, E-H-05 0.5-8 μM
Procedure: Metabolic labeling of E. histolytica trophozoites by [^35S]-labeled sulfate was performed essentially as described previously with slight modification. […] Each 10 mM stock solution (in DMSO) of the three commercially sourced compounds was serially diluted by 2-fold decrements with DMSO. The resulting diluted solutions were then added to 0.75 ml cell suspension in BI-S-33 medium at 1/100 (vol/vol). […] Note that DMSO was used as a solvent control at 1%, which was the DMSO concentration in all samples analyzed. [^35S]-labeled sulfate (45 μCi) was added 4 h after the start of treatments and labeled cells were harvested at 6 h. […] Each spot on the TLC plates was quantified using a Fuji imaging analyzer and Multi Gauge 2.2 software (FLA-7000; Fujifilm, Japan). The total cell protein was estimated using a Pierce BCA protein assay kit (Thermo Scientific, Rockford, IL, USA).

[9] = target: T1, rHsAPSK (recombinant APSK domain of HsPAPSS1) (Homo sapiens, UniProt O43252); assay: 96-well plate-based in vitro APSK activity assay (coupling assay, NADH decrease); assay type: biochemical; conditions: 10 μM compound, 1% DMSO
T1 construct: APSK domains of HsPAPSS1 (Ala^25—Pro^227) and -2 (Ser^15—Pro^217); His tag (pCold-I vector); made in house; host or cells: E. coli BL21(DE3)
T1 sequence (O43252 25-227): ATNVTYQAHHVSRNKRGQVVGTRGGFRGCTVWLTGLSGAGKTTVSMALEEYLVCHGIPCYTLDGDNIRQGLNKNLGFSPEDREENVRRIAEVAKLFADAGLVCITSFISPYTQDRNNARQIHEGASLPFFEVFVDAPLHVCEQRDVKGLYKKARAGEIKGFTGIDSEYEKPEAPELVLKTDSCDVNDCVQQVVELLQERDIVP
Procedure: as §2, §3, §4

[10] = rEhAPSK, average ± SD, more than three independent experiments, read-out: APSK activity IC50
[11] = read-out: APSK activity IC50, rEhAPSK, average ± SD, more than three independent experiments

rEhAPSK, sequence (C4LUW9 entry or part of it): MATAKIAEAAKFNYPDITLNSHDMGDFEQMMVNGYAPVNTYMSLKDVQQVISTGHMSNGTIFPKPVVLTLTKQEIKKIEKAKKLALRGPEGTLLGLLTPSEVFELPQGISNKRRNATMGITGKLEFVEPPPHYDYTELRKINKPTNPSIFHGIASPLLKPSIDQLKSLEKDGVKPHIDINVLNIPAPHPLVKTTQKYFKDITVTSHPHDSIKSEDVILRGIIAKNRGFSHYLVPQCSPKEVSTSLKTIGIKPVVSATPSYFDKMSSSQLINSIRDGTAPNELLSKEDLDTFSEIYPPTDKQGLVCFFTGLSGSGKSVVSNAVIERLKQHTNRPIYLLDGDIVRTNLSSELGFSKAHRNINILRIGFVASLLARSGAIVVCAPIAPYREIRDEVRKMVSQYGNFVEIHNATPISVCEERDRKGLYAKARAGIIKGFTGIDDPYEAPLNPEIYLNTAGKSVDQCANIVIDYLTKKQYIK

SMILES | Inhibition of rEhAPSK activity (rEhAPSK) | IC50 (rEhAPSK; [10]) [µM] | Number of viable HFF cells relative to 1% DMSO control (set as 100%) ([1]; 10 μM, 48 h) | also measured
C[C@H](CCC(=O)O)C[C@H](C)C[C@H](C)C(=O)/C=C(\O)[C@H](C)C[C@H](C)C/C=C/[C@@H](C)[C@@H](O)[C@@H](C)[C@@H](O)C[C@@H]1CC[C@@](C)([C@H]2CC[C@@](C)([C@@H](C)O)O2)O1 [ionomycin, reference compound] |  |  |  | HFF cell viability ([1]; 30 μM, positive control): almost completely abolished cell viability
Cc1ccc(C(=O)Nc2ccc(S(=O)(=O)O)c3cc(S(=O)(=O)O)cc(S(=O)(=O)O)c23)cc1NC(=O)c1cccc(NC(=O)Nc2cccc(C(=O)Nc3cc(C(=O)Nc4ccc(S(=O)(=O)O)c5cc(S(=O)(=O)O)cc(S(=O)(=O)O)c45)ccc3C)c2)c1 [B-D-03, suramin, reference compound] | reproducibly inhibited rEhAPSK activity | 0.52 ± 0.102 |  | Number of viable HFF cells relative to 1% DMSO control (set as 100%) ([1]; 10 µM): did not affect numbers of viable cells
Cc1cc(C2=NOC(c3cc(Cl)c(F)c(Cl)c3)(C(F)(F)F)C2)ccc1C(=O)NCc1ccc2c(c1)C(C)(C)OB2O (centres unmarked) [B-B-05] | reproducibly inhibited rEhAPSK activity |  |  | Number of viable HFF cells relative to 1% DMSO control (set as 100%) ([1]; 10 µM): did not affect numbers of viable cells; IC50 (rEhAPSK): 5.73 ± 1.36 µM; IC50 (rEhAPSK; [11]): < 10 µM
C[C@]1(COc2ccc(N3CCC(Oc4ccc(OC(F)(F)F)cc4)CC3)cc2)Cn2cc([N+](=O)[O-])nc2O1 [C-F-06, delamanid, reference compound] | reproducibly inhibited rEhAPSK activity | > 10 | did not affect numbers of viable cells | 
Cn1c(=O)c2c(S(C)(=O)=O)snc2n(C)c1=O [C-C-06] | reproducibly inhibited rEhAPSK activity | 8.67 ± 2.62 |  | 
O=C(COc1cccc(F)c1)Nc1nc(-c2ccccn2)cs1 [A-D-11, 2-(3-fluorophenoxy)-N-[4-(2-pyridyl)thiazol-2-yl]-acetamide] | reproducibly inhibited rEhAPSK activity |  |  | IC50 at 48 h [2]: > 100 µM; IC50 [3]: 7.5 ± 2.29 µM; IC50 [4]: 2.27 ± 0.252 µM; Number of cysts formed at 72 h [4]: neither A-D-11 nor A-H-11 affected the number of cysts formed at 72 h; Effect on cyst formation [6]: negative effects; Concentration range that produced trophozoite morphology similar to DMSO control [7]: 6.25–100 μM; Amount of sulfolipids synthesized [8]: dose-dependently reduced the amount of sulfolipids synthesized; Inhibition of rHsAPSK activity [9]: none showed any inhibitory activity against HsAPSK; IC50 (rEhAPSK): 6.3 ± 1.53 µM; IC50 (rEhAPSK; [11]): < 10 µM
COc1ccc(C2=NN(C3CCCCCC3)C(=O)C3CC=CCC23)cc1OCCCCOc1ccc(-c2nnn[nH]2)cc1 (centres unmarked) [B-C-02] | reproducibly inhibited rEhAPSK activity |  |  | Number of viable HFF cells relative to 1% DMSO control (set as 100%) ([1]; 10 µM): ~20 − ~60
COc1ccc(C2=NN(C3CCCCCC3)C(=O)C2(C)C)cc1OCCCCOc1ccc(-c2nnn[nH]2)cc1 [A-C-05] | reproducibly inhibited rEhAPSK activity |  |  | IC50 (rEhAPSK): 4.73 ± 1.16 µM; IC50 (rEhAPSK; [11]): < 10 µM

More lines, main results first:

Inhibition of rEhAPSK activity (rEhAPSK) | IC50 (rEhAPSK; [10]) [µM] | SMILES | Number of viable HFF cells relative to 1% DMSO control (set as 100%) ([1]; 10 μM, 48 h) | also measured
reproducibly inhibited rEhAPSK activity | 0.47 ± 0.0499 | N=C(N)Nc1ccc(-c2ccc(-c3ccc(NC(=N)N)c(Cl)c3)o2)cc1Cl [D-E-10] | did not affect numbers of viable cells | 
reproducibly inhibited rEhAPSK activity | 6.57 ± 1.25 | COc1ccc(Cl)cc1NC(=O)CN(C)C(=O)c1cnn(-c2ccccc2)n1 [B-C-08] | did not affect numbers of viable cells | 
reproducibly inhibited rEhAPSK activity | 7.67 ± 1.25 | Cc1cc(C)cc(COc2ccc3c(C)c(CCC(=O)O)c(=O)oc3c2C)c1 [A-F-07] | did not affect numbers of viable cells | 
reproducibly inhibited rEhAPSK activity | 2.03 ± 0.205 | N=C(N)Nc1ccc(-c2ccc(-c3ccc(NC(=N)N)cc3Cl)o2)c(Cl)c1 [C-F-03] | did not affect numbers of viable cells | 
reproducibly inhibited rEhAPSK activity | 6.75 ± 1.35 | O=C(Nc1nc(-c2ccccn2)cs1)c1cncn1-c1ccccc1 [A-H-11, 3-phenyl-N-[4-(2-pyridyl)thiazol-2-yl]-imidazole-4-carboxamide] | did not affect numbers of viable cells; also recorded: did not influence numbers of viable HFF cells | IC50 at 48 h ([2]; human foreskin fibroblast (HFF) cells): > 100 µM; Number of viable HFF cells relative to DMSO control ([1]; 100 μM, 48 h): did not influence numbers of viable HFF cells; IC50 ([3]; average ± SD, three independent experiments): 4 ± 1.05 µM; IC50 ([4]; 0–72 h, average ± SD, three independent experiments): 2.35 ± 0.132 µM; Number of cysts formed at 72 h [4]: neither A-D-11 nor A-H-11 affected the number of cysts formed at 72 h; Effect on trophozoite proliferation [5]: negative effects; Effect on cyst formation [6]: negative effects; Concentration range that produced trophozoite morphology similar to DMSO control [7]: 6.25–100 μM; Amount of sulfolipids synthesized [8]: dose-dependently reduced the amount of sulfolipids synthesized; Inhibition of rHsAPSK activity [9]: none showed any inhibitory activity against HsAPSK
reproducibly inhibited rEhAPSK activity | > 10 | O=C(Nc1nnc(S)s1)c1cc(Br)ccc1Cl [E-G-10] | did not affect numbers of viable cells | 
reproducibly inhibited rEhAPSK activity | > 10 | COc1cccc(-n2nnnc2S(=O)(=O)Cc2ccccc2)c1 [A-F-04] |  | 
